Measured values published in publication PMC3206575 (The Journal of Cell Biology, 1999).
Residue numbers refer to the chain shown, from its start.

Experiments:
[1] = molecular target: T1, DRal (Drosophila Ral), GST-DRal (Drosophila melanogaster, UniProt P48555, G20V); assay: [3H]GDP binding to GST fusion protein
T1 sequence (P48555 1-201 G20V): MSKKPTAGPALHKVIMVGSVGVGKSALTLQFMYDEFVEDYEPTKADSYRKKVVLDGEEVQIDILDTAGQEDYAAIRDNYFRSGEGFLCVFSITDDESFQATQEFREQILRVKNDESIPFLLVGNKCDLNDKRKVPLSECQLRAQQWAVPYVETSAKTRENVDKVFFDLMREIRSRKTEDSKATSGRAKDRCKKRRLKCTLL

[2] = molecular target: T2, DRal (Drosophila Ral), GST-DRal (Drosophila melanogaster, UniProt P48555, S25N); assay: [3H]GDP binding to GST fusion protein
T2 sequence (P48555 1-201 S25N): T1 sequence (P48555 1-201 G20V) with V20G, S25N

[3] = molecular target: T3, DRal (Drosophila Ral), GST-DRal (Drosophila melanogaster, UniProt P48555); assay: [3H]GDP binding to GST fusion protein
T3 sequence (P48555 1-201): T1 sequence (P48555 1-201 G20V) with V20G

[4] = molecular target: T2, DRal (Drosophila Ral), GST-DRal; assay: […]GTPγS binding to GST fusion protein
[5] = molecular target: T1, DRal (Drosophila Ral), GST-DRal; assay: […]GTPγS binding to GST fusion protein
[6] = molecular target: T3, DRal (Drosophila Ral), GST-DRal; assay: […]GTPγS binding to GST fusion protein

Question: With `Nc1nc2c(ncn2[C@@H]2O[C@H](COP(=O)(O)OP(=O)(O)O)[C@@H](O)[C@H]2O)c(=O)[nH]1` [GDP] as the compound, how does the Kd [1] read?
Answer: Its Kd is 8.4 nM.

Question: What about the Kd [2] of the same compound?
Answer: The Kd was 95.1 nM.

Question: And the Kd [3]?
Answer: Its Kd is 14 nM.

Question: Which Kd [4] does the source give for `Nc1nc2c(ncn2[C@@H]2O[C@H](COP(=O)(O)OP(=O)(O)OP(O)(O)=S)[C@@H](O)[C@H]2O)c(=O)[nH]1` [GTPγS] here?
Answer: Its Kd is 406 nM.

Question: And the Kd [5]?
Answer: Its Kd is 38 nM.

Question: What about the Kd [6] of the same compound?
Answer: The Kd was 30.7 nM.
